Results from ChEMBL document CHEMBL5252594.
The source made the active and inactive calls.

What was measured:
Assay type in all cases: functional, organism-based
[1] = test system: Aedes aegypti; test: Larvicidal activity against Aedes aegypti Rockefeller strain L3 Larvae assessed as mortality at 90 ug/ml measured after 24 hrs; conditions: dose 90.0 µg/ml
[2] = test system: Aedes aegypti; test: Larvicidal activity against Aedes aegypti Rockefeller strain L3 Larvae assessed as mortality at 90 ug/ml measured after 48 hrs; conditions: dose 90.0 µg/ml
[3] = test system: Aedes aegypti; test: Larvicidal activity against Aedes aegypti Rockefeller strain L3 Larvae assessed as mortality at 90 ug/ml measured after 72 hrs; conditions: dose 90.0 µg/ml
[4] = test system: Aedes aegypti; test: Larvicidal activity against Aedes aegypti Rockefeller strain L3 Larvae assessed as mortality at 150 ug/ml measured after 24 hrs; conditions: dose 150.0 µg/ml
[5] = test system: Aedes aegypti; test: Larvicidal activity against Aedes aegypti Rockefeller strain L3 Larvae assessed as mortality at 150 ug/ml measured after 48 hrs; conditions: dose 150.0 µg/ml
[6] = test system: Aedes aegypti; test: Larvicidal activity against Aedes aegypti Rockefeller strain L3 Larvae assessed as mortality at 150 ug/ml measured after 72 hrs; conditions: dose 150.0 µg/ml

Measured: Activity

O=C(/C=C/c1ccc(O)c(O)c1)O[C@@H]1C[C@](O)(C(=O)O)C[C@@H](OC(=O)/C=C/c2ccc(O)c(O)c2)[C@H]1O
inactive: all assays above
